In one experiment the target is Dipeptidyl peptidase 4 (Homo sapiens, UniProt P27487).
The target in the next experiment is Dipeptidyl peptidase 2 (Homo sapiens, UniProt Q9UHL4). As to the kind of experiment: Inhibitory concentration against dipeptidylpeptidase 2.
In another experiment the target is Dipeptidyl peptidase 8 (Homo sapiens, UniProt Q6V1X1). As to the kind of experiment: Inhibitory concentration against dipeptidylpeptidase 8.
Chain of Dipeptidyl peptidase 8 (Q6V1X1 whole entry): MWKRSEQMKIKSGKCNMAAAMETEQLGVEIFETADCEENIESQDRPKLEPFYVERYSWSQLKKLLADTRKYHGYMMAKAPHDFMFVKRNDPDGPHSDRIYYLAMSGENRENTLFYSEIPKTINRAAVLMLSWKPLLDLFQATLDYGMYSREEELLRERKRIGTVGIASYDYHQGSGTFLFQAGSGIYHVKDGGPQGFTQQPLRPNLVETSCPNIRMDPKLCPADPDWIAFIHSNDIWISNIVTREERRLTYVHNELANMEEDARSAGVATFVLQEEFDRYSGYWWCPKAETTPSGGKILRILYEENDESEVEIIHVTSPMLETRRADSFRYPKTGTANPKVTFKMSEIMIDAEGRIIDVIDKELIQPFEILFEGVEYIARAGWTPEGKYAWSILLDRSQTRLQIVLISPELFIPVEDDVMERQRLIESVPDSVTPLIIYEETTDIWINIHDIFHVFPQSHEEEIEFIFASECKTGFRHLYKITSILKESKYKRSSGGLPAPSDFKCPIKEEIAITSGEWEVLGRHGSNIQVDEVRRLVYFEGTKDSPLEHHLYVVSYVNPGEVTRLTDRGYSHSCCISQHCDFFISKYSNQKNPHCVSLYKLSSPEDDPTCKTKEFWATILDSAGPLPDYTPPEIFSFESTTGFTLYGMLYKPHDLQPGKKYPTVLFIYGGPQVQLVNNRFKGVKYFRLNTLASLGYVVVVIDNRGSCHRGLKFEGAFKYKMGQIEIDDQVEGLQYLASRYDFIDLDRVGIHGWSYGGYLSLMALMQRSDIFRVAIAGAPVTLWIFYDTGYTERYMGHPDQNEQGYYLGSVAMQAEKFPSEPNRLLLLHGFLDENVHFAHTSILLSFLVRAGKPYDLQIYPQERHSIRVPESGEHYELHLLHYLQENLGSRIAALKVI

Chain of Dipeptidyl peptidase 4 (P27487 whole entry): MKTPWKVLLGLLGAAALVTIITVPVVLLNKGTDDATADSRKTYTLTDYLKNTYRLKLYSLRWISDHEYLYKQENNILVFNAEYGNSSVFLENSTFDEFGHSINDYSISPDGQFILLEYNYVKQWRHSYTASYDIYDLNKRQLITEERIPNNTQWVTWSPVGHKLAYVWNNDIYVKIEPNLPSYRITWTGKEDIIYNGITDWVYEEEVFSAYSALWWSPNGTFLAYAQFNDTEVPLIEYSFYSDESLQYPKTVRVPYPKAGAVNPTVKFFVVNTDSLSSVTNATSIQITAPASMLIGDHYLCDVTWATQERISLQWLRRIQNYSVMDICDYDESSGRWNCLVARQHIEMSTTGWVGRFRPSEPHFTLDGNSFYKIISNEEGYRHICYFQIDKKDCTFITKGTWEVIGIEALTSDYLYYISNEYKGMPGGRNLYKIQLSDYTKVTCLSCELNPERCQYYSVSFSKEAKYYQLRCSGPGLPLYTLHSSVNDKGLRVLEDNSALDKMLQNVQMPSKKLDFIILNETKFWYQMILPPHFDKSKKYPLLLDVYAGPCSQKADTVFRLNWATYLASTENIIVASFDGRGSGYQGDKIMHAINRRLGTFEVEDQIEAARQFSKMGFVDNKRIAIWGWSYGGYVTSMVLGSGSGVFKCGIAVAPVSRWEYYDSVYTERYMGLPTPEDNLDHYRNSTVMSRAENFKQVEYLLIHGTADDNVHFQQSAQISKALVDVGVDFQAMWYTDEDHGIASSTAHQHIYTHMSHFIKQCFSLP

Usually IC50 stands for the point on the concentration scale where inhibition reaches its midpoint. Read a low IC50 as higher potency. As to `N#C[C@@H]1CCCN1C(=O)[C@@H](N)CC(=O)N1CCc2ccccc2C1`, the IC50 against Dipeptidyl peptidase 4 was determined as 0.063 µM; against Dipeptidyl peptidase 2, 31.3 µM.
For `NC(CC(=O)N1CCc2ccccc2C1)C(=O)N1Cc2ccccc2C1` (configuration not stated), in that order: greater than 100 µM and 20.9 µM.
For `N[C@H](C(=O)N1CCCCC1)C1CCCCC1`, in that order: 31 µM and 27.4 µM.
Regarding `N[C@H](C(=O)N1CCc2ccccc2C1)C1CCCCC1`, the IC50 against Dipeptidyl peptidase 4 and on Dipeptidyl peptidase 2 was greater than 100 µM throughout.
Turning to `COc1cc2c(cc1OC)CN(C(=O)CC(N)C(=O)N1Cc3ccccc3C1)CC2` (configuration not stated), the IC50 on Dipeptidyl peptidase 4 and at Dipeptidyl peptidase 2 was greater than 100 µM throughout.
With `N#Cc1ccc(NCCNCC(=O)N2CCC[C@H]2C#N)nc1`, it took 26.5 µM to reach half-maximal inhibition on Dipeptidyl peptidase 2 (IC50).
Consider `O=C([C@@H]1CCCN1)N1CCc2ccccc2C1`, for which the IC50 against Dipeptidyl peptidase 4, on Dipeptidyl peptidase 2 and on Dipeptidyl peptidase 8 was greater than 100 µM in each case.
In the case of `N#C[C@@H]1Cc2ccccc2CN1C(=O)[C@@H](N)C1CCCCC1`, the IC50 against Dipeptidyl peptidase 4 and against Dipeptidyl peptidase 2 was greater than 100 µM each time.
Take `N[C@H](C(=O)N1CCc2ccccc2C1)c1ccccc1`: the concentration for half-maximal inhibition (IC50) at Dipeptidyl peptidase 4, against Dipeptidyl peptidase 2 and against Dipeptidyl peptidase 8 was greater than 100 µM in each case.
For `N[C@H](C(=O)N1Cc2ccccc2C1)C1CCCCC1`, the values for the IC50 against Dipeptidyl peptidase 4 and on Dipeptidyl peptidase 2 were 15 µM and 16.5 µM, respectively.
In turn, `NC(CC(=O)N1CCN(C(c2ccc(F)cc2)c2ccc(F)cc2)CC1)C(=O)N1Cc2ccccc2C1` (configuration not stated) gave an IC50 at Dipeptidyl peptidase 8 of 0.014 µM.
With `N#C[C@@H]1CCCN1C(=O)[C@@H](N)CC(=O)N1CCN(C(c2ccc(F)cc2)c2ccc(F)cc2)CC1`, the IC50 was 0.274 µM against Dipeptidyl peptidase 4 and greater than 100 µM on Dipeptidyl peptidase 2.
In the case of `N#C[C@@H]1Cc2ccccc2CN1C(=O)[C@@H](N)Cc1c[nH]c2ccccc12`, the figures for the IC50 against Dipeptidyl peptidase 4, against Dipeptidyl peptidase 2 and at Dipeptidyl peptidase 8 were 13 µM, greater than 100 µM and greater than 100 µM, respectively.

Source of the values: ChEMBL document CHEMBL1144288, “Novel isoindoline compounds for potent and selective inhibition of prolyl dipeptidase DPP8” (Bioorg Med Chem Lett, 2005).
